Data as given in patent publication US9834558B2, “Substituted bridged urea analogs as sirtuin modulators” (GLAXOSMITHKLINE LLC, priority 2013, dated 2017).
Where two headings read alike, the source gives them in different places.

Biological target: T1, SIRT1 (Homo sapiens, UniProt Q96EB6)
T1 sequence (Q96EB6 1-747): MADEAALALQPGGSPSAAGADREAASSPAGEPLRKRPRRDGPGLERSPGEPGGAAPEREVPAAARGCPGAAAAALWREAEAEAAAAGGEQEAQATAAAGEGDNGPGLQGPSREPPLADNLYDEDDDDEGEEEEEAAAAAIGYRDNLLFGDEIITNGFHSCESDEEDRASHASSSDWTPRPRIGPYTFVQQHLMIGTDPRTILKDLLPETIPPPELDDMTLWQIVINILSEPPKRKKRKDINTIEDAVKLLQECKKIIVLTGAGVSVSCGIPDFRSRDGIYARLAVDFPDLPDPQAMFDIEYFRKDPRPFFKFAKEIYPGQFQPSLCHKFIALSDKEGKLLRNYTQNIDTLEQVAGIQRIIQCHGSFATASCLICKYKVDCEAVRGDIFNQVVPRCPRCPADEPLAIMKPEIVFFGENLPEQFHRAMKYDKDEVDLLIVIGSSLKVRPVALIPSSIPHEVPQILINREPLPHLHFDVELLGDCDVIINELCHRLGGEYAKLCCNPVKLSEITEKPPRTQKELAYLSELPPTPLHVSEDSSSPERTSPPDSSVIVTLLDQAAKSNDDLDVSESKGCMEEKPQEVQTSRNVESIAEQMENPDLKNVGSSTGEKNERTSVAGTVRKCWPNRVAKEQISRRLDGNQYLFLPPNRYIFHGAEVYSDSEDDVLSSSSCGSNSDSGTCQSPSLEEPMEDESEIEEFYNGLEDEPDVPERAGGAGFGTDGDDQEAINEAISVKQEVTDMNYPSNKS
Experiment: Trp mass spectrometry assay of SIRT1 activation
Type: biochemical
Settings: for TRP Activity (EC1.5): EC1.5 = concentration that results in 150% activation of SIRT1; for Emax: read-out: TRP MAX RESP (percent maximum fold activation)
Method in brief: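 N-terminal His-tagged human SIRT1 (10 nM, E. coli BL21(DE3)) with 0.5 μM Ac-RHKK(Ac)W-NH2 peptide and 120 μM βNAD+, 25 min at 25 °C in HEPES pH 7.5, formic acid stop. OAADPR or deacetylated peptide quantified by mass spectrometry; EC1.5 (50% activity increase over control) and Percent Maximum Activation reported.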

[1] = Trp peptide assay, maximum activity relative to control (100%)

| TRP Activity (EC1.5) (Trp peptide assay) | Emax [1] [%] | SMILES | Emax [%] |
| --- | --- | --- | --- |
| A (A (EC1.5<1 μM)) | > 150 | O=C(Nc1cncnc1)N1c2nc(-c3cncc(C(F)(F)F)c3)ccc2N2CCC[C@H]1C2 [(9S)-N-(pyrimidin-5-yl)-5-[5-(trifluoromethyl)pyridin-3-yl]-1,6,8-triazatricyclo[7.3.1.0 {2,7}]trideca-2(7),3,5-triene-8-carboxamide] | – |
| B (B (EC1.5 1-25 μM)) | > 150 | Cc1cc(-c2ccc3c(n2)N(C(=O)NC2CCC2)[C@H]2CCN3C2)ccn1 [(9S)-N-cyclobutyl-5-(2-methylpyridin-4-yl)-1,6,8-triazatricyclo[7.2.1.0 {2,7}]dodeca-2(7),3,5-triene-8-carboxamide] | – |
| B (B (EC1.5 1-25 μM)) | > 150 | Cc1cc(-c2ccc3c(n2)N(C(=O)NC2CCCC2)[C@H]2CCN3C2)ccn1 [(9S)-N-cyclopentyl-5-(2-methylpyridin-4-yl)-1,6,8-triazatricyclo[7.2.1.0 {2,7}]dodeca-2,4,6-triene-8-carboxamide] | – |
| B (B (EC1.5 1-25 μM)) | > 150 | Cc1cc(-c2ccc3c(n2)N(C(=O)Nc2ccc4[nH]cnc4n2)[C@H]2CCN3C2)ccn1 [(9S)-N-{1H-imidazo[4,5-b]pyridin-5-yl}-5-(2-methylpyridin-4-yl)-1,6,8-triazatricyclo[7.2.1.0 {2,7}]dodeca-2(7),3,5-triene-8-carboxamide] | – |
| B (B (EC1.5 1-25 μM)) | > 150 | Cc1cc(-c2ccc3c(n2)N(C(=O)Nc2nccc4[nH]cnc24)[C@H]2CCN3C2)ccn1 [(9S)-N-{1H-imidazo[4,5-c]pyridin-4-yl}-5-(2-methylpyridin-4-yl)-1,6,8-triazatricyclo[7.2.1.0 {2,7}]dodeca-2,4,6-triene-8-carboxamide] | – |
| A (A (EC1.5<1 μM)) | > 150 | O=C(Nc1ccnc(OC[C@H](O)CO)c1)N1c2nc(-c3cccc(C(F)(F)F)c3)ccc2N2CC[C@H]1C2 [(9S)-N-{2-[(2R)-2,3-dihydroxypropoxy]pyridin-4-yl}-5-[3-(trifluoromethyl)phenyl]-1,6,8-triazatricyclo[7.2.1.0 {2,7}]dodeca-2(7),3,5-triene-8-carboxamide] | – |
| A (A (EC1.5<1 μM)) | > 150 | O=C(Nc1ccnc(OC[C@H](O)CO)n1)N1c2nc(-c3cccc(C(F)(F)F)c3)ccc2N2CC[C@H]1C2 [(9S)-N-{2-[(2R)-2,3-dihydroxypropoxy]pyrimidin-4-yl}-5-[3-(trifluoromethyl)phenyl]-1,6,8-triazatricyclo[7.2.1.0 {2,7}]dodeca-2(7),3,5-triene-8-carboxamide] | – |
| A (A (EC1.5<1 μM)) | > 150 | O=C(Nc1ccnc(OC[C@@H](O)CO)c1)N1c2nc(-c3cccc(C(F)(F)F)c3)ccc2N2CC[C@H]1C2 [(9S)-N-{2-[(2S)-2,3-dihydroxypropoxy]pyridin-4-yl}-5-[3-(trifluoromethyl)phenyl]-1,6,8-triazatricyclo[7.2.1.0 {2,7}]dodeca-2,4,6-triene-8-carboxamide] | – |
| A (A (EC1.5<1 μM)) | > 150 | O=C(Nc1ccnc(OC[C@@H](O)CO)n1)N1c2nc(-c3cccc(C(F)(F)F)c3)ccc2N2CC[C@H]1C2 [(9S)-N-{2-[(2S)-2,3-dihydroxypropoxy]pyrimidin-4-yl}-5-[3-(trifluoromethyl)phenyl]-1,6,8-triazatricyclo[7.2.1.0 {2,7}]dodeca-2(7),3,5-triene-8-carboxamide] | – |
| A (A (EC1.5<1 μM)) | > 150 | O=C(Nc1ccnc(O[C@@H]2CCOC2)n1)N1c2nc(-c3cccc(C(F)(F)F)c3)ccc2N2CC[C@H]1C2 [(9S)-N-{2-[(3R)-oxolan-3-yloxy]pyrimidin-4-yl}-5-[3-(trifluoromethyl)phenyl]-1,6,8-triazatricyclo[7.2.1.0 {2,7}]dodeca-2(7),3,5-triene-8-carboxamide] | – |
| B (B (EC1.5 1-25 μM)) | > 150 | Cc1cc(-c2ccc3c(n2)N(C(=O)Nc2cnc4c(c2)OCCO4)[C@H]2CCN3C2)ccn1 [(9S)-N-{2H,3H-[1,4]dioxino[2,3-b]pyridin-7-yl}-5-(2-methylpyridin-4-yl)-1,6,8-triazatricyclo[7.2.1.0 {2,7}]dodeca-2,4,6-triene-8-carboxamide] | – |
| A (A (EC1.5<1 μM)) | > 150 | O=C(Nc1cc(OC[C@H](O)CO)ccn1)N1c2nc(-c3cccc(C(F)(F)F)c3)ccc2N2CC[C@H]1C2 [(9S)-N-{4-[(2R)-2,3-dihydroxypropoxy]pyridin-2-yl}-5-[3-(trifluoromethyl)phenyl]-1,6,8-triazatricyclo[7.2.1.0 {2,7}]dodeca-2(7),3,5-triene-8-carboxamide] | – |
| A (A (EC1.5<1 μM)) | > 150 | O=C(Nc1cc(OC[C@@H](O)CO)ccn1)N1c2nc(-c3cccc(C(F)(F)F)c3)ccc2N2CC[C@H]1C2 [(9S)-N-{4-[(2S)-2,3-dihydroxypropoxy]pyridin-2-yl}-5-[3-(trifluoromethyl)phenyl]-1,6,8-triazatricyclo[7.2.1.0 {2,7}]dodeca-2(7),3,5-triene-8-carboxamide] | – |

Continued, compound first:

| SMILES | TRP Activity (EC1.5) (Trp peptide assay) | Emax [1] [%] | Emax [%] |
| --- | --- | --- | --- |
| O=C(Nc1ccccn1)N1c2nc(N3CCC[C@@H](C(F)(F)F)C3)ccc2N2CC[C@H]1C2 [(9S)-N-(pyridin-2-yl)-5-[(3R)-3-(trifluoromethyl)piperidin-1-yl]-1,6,8-triazatricyclo[7.2.1.0 {2,7}]dodeca-2,4,6-triene-8-carboxamide] | B (B (EC1.5 1-25 μM)) | > 150 | – |
| O=C(Nc1ccccn1)N1c2nc(N3CC[C@@H](C(F)(F)F)C3)ccc2N2CC[C@H]1C2 [(9S)-N-(pyridin-2-yl)-5-[(3R)-3-(trifluoromethyl)pyrrolidin-1-yl]-1,6,8-triazatricyclo[7.2.1.0^2,7]dodeca-2,4,6-triene-8-carboxamide] | A (A (EC1.5<1 μM)) | > 150 | – |
| O=C(Nc1ccccn1)N1c2nc(N3CCC[C@H](C(F)(F)F)C3)ccc2N2CC[C@H]1C2 [(9S)-N-(pyridin-2-yl)-5-[(3S)-3-(trifluoromethyl)piperidin-1-yl]-1,6,8-triazatricyclo[7.2.1.0 {2,7}]dodeca-2,4,6-triene-8-carboxamide] | B (B (EC1.5 1-25 μM)) | > 150 | – |
| O=C(Nc1ccccn1)N1c2nc(N3CCC(C(F)(F)F)C3)ccc2N2CC[C@H]1C2 (stereo partly drawn) [(9S)-N-(pyridin-2-yl)-5-[(3S)-3-(trifluoromethyl)pyrrolidin-1-yl]-1,6,8-triazatricyclo[7.2.1.0^{2,7}]dodeca-2(7),3,5-triene-8-carboxamide] | B (B (EC1.5 1-25 μM)) | > 150 | – |
| O=C(Nc1cccnc1)N1c2nc(-c3ccc(C(F)(F)F)nc3)ccc2N2CC[C@H]1C2 [(9S)-N-(pyridin-3-yl)-5-[6-(trifluoromethyl)pyridin-3-yl]-1,6,8-triazatricyclo[7.2.1.0^{2,7}]dodeca-2(7),3,5-triene-8-carboxamide] | B (B (EC1.5 1-25 μM)) | > 150 | – |
| O=C(Nc1cccnc1)N1c2nc(N3CCC[C@H](C(F)(F)F)C3)ccc2N2CCC[C@H]1C2 [(9S)-N-(pyridin-3-yl)-5-[(3S)-3-(trifluoromethyl)piperidin-1-yl]-1,6,8-triazatricyclo[7.3.1.0 {2,7}]trideca-2(7),3,5-triene-8-carboxamide] | A (A (EC1.5<1 μM)) | > 150 | – |
| O=C(Nc1ncccn1)N1c2nc(N3CCC[C@H](C(F)(F)F)C3)ccc2N2CCC[C@H]1C2 [(9S)-N-(pyrimidin-2-yl)-5-[(3S)-3-(trifluoromethyl)piperidin-1-yl]-1,6,8-triazatricyclo[7.3.1.0 {2,7}]trideca-2(7),3,5-triene-8-carboxamide] | A (A (EC1.5<1 μM)) | > 150 | – |
| O=C(Nc1ccncn1)N1c2nc(-c3ccnc(C(F)(F)F)c3)ccc2N2CCC[C@H]1C2 [(9S)-N-(pyrimidin-4-yl)-5-[2-(trifluoromethyl)pyridin-4-yl]-1,6,8-triazatricyclo[7.3.1.0 {2,7}]trideca-2(7),3,5-triene-8-carboxamide] | A (A (EC1.5<1 μM)) | > 150 | – |
| O=C(Nc1cncnc1)N1c2nc(-c3ccnc(C(F)(F)F)c3)ccc2N2CCC[C@H]1C2 [(9S)-N-(pyrimidin-5-yl)-5-[2-(trifluoromethyl)pyridin-4-yl]-1,6,8-triazatricyclo[7.3.1.0 {2,7}]trideca-2(7),3,5-triene-8-carboxamide] | A (A (EC1.5<1 μM)) | > 150 | – |
| Cc1cc(-c2ccc3c(n2)N(C(=O)NC2CC2)[C@H]2CCN3C2)ccn1 [(9S)-N-cyclopropyl-5-(2-methylpyridin-4-yl)-1,6,8-triazatricyclo[7.2.1.0 {2,7}]dodeca-2,4,6-triene-8-carboxamide] | B (B (EC1.5 1-25 μM)) | – | > 150 |
